# Source: PubChem BioAssay (NCI)
# Several values for one entry are separate records, joined by “and”; a condition that tells them apart may be missing. Equal entries are not always repeated.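 Cultured in 96-well plates, cells were exposed to test compound for 48 hours across five concentrations. Abbreviation: GI50, concentration required for 50% inhibition of growth. At the TGI there is no net growth.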
# Legend:
# Assay in all cases: NCI-60 cell line screen, 48 h
# [1] = tested on: PC-3 prostate
# [2] = tested on: NCI/ADR-RES ovarian
# [3] = tested on: OVCAR-8 ovarian
# [4] = tested on: HS 578T breast
# [5] = tested on: TK-10 renal
# [6] = tested on: UACC-62 melanoma
# [7] = tested on: NCI-H226 lung
# [8] = tested on: IGROV1 ovarian
# [9] = tested on: ACHN renal
# [10] = tested on: OVCAR-4 ovarian
# [11] = tested on: OVCAR-5 ovarian
# [12] = tested on: HT29 colon
# [13] = tested on: M14 melanoma
# [14] = tested on: K-562 leukemia
# [15] = tested on: MCF7 breast
# [16] = tested on: HCC-2998 colon
# [17] = tested on: COLO 205 colon
# [18] = tested on: SK-OV-3 ovarian
# [19] = tested on: MOLT-4 leukemia
# [20] = tested on: EKVX NSCLC
# [21] = tested on: MALME-3M melanoma
# [22] = tested on: NCI-H460 lung
# [23] = tested on: SR leukemia
# [24] = tested on: SF-268 CNS
# [25] = tested on: SN12C renal
# [26] = tested on: DU-145 prostate
# [27] = tested on: HCT-116 colon
# [28] = tested on: UACC-257 melanoma
# [29] = tested on: HOP-92 NSCLC
# [30] = tested on: SF-295 CNS
# [31] = tested on: RPMI-8226 leukemia
# [32] = tested on: T-47D breast
# [33] = tested on: MDA-MB-435
# [34] = tested on: LOX IMVI melanoma
# [35] = tested on: CAKI-1 renal
# [36] = tested on: MDA-MB-231 breast
# [37] = tested on: A549 NSCLC
# [38] = tested on: CCRF-CEM leukemia
# [39] = tested on: BT-549 breast
# [40] = tested on: NCI-H522 lung
# [41] = tested on: KM12 colon
# [42] = tested on: UO-31 renal
# [43] = tested on: OVCAR-3 ovarian
# [44] = tested on: HOP-62 NSCLC
# [45] = tested on: SNB-19 CNS
# [46] = tested on: HCT-15 colon
# [47] = tested on: U251 CNS
# [48] = tested on: RXF 393 renal
# [49] = tested on: 786-0 renal
# [50] = tested on: SW-620 colon
# [51] = tested on: A498 renal
# [52] = tested on: SK-MEL-5 melanoma
# [53] = tested on: SK-MEL-2 melanoma
# [54] = tested on: SK-MEL-28 melanoma
# [55] = tested on: HL-60(TB) leukemia
# [56] = tested on: SF-539 CNS
# [57] = tested on: NCI-H23 lung
# [58] = tested on: SNB-75 CNS
smiles,measurement,setting,value
COc1cc(OCc2cccc(-c3ccc(C(O)c4nccs4)cc3)c2C)cc(OC)c1C=O (configuration not stated),GI50,[1],2.74 µM
same,TGI,[1],11.2 µM
same,GI50,[2],2.84 µM
same,TGI,[2],14.7 µM
same,GI50,[3],2.9 µM
same,TGI,[3],23.6 µM
same,GI50,[4],3.08 µM
same,TGI,[4],20.5 µM
same,GI50,[5],1.69 µM
same,TGI,[5],13.7 µM
same,GI50,[6],0.349 µM
same,TGI,[6],1.92 µM
same,GI50,[7],0.37 µM
same,TGI,[7],2.7 µM
same,GI50,[8],0.887 µM
same,TGI,[8],4.84 µM
same,GI50,[9],1.72 µM
same,TGI,[9],6.68 µM
same,GI50,[10],0.597 µM
same,TGI,[10],6.35 µM
same,GI50,[11],0.929 µM
same,TGI,[11],5.54 µM
same,GI50,[12],2.83 µM
same,TGI,[12],13.6 µM
same,GI50,[13],2.55 µM
same,TGI,[13],7.61 µM
same,GI50,[14],1.22 µM
same,TGI,[14],13.6 µM
same,GI50,[15],1.69 µM
same,TGI,[15],4.81 µM
same,GI50,[16],2.28 µM
same,TGI,[16],7.08 µM
same,GI50,[17],2.64 µM
same,TGI,[17],8.27 µM
same,GI50,[18],6.07 µM
same,TGI,[18],20.9 µM
same,GI50,[19],1.9 µM
same,TGI,[19],5.88 µM
same,GI50,[20],2.02 µM
same,TGI,[20],6.63 µM
same,GI50,[21],2.7 µM
same,TGI,[21],7.9 µM
same,GI50,[22],1.09 µM
same,TGI,[22],10.7 µM
same,GI50,[23],1.82 µM
same,TGI,[23],5.08 µM
same,GI50,[24],2.92 µM
same,TGI,[24],12.3 µM
same,GI50,[25],1.98 µM
same,TGI,[25],7.07 µM
same,GI50,[26],2.81 µM
same,TGI,[26],10.5 µM
same,GI50,[27],1.44 µM
same,TGI,[27],4.51 µM
same,GI50,[28],0.842 µM
same,TGI,[28],5.11 µM
same,GI50,[29],2.19 µM
same,TGI,[29],8.52 µM
same,GI50,[30],2.12 µM
same,TGI,[30],6.58 µM
same,GI50,[31],1.34 µM
same,TGI,[31],5.47 µM
same,GI50,[32],0.401 µM
same,TGI,[32],6.38 µM
same,GI50,[33],2.22 µM
same,TGI,[33],6.26 µM
same,GI50,[34],1.79 µM
same,TGI,[34],4.08 µM
same,GI50,[35],0.182 µM
same,TGI,[35],3.3 µM
same,GI50,[36],2.2 µM
same,TGI,[36],7.32 µM
same,GI50,[37],2.32 µM
same,TGI,[37],11.6 µM
same,GI50,[38],2.33 µM
same,TGI,[38],19.9 µM
same,GI50,[39],1.77 µM
same,TGI,[39],6.78 µM
same,GI50,[40],1.74 µM
same,TGI,[40],6.35 µM
same,GI50,[41],3.02 µM
same,TGI,[41],11 µM
same,GI50,[42],1.49 µM
same,TGI,[42],4.68 µM
same,GI50,[43],1.62 µM
same,TGI,[43],4.36 µM
same,GI50,[44],3.88 µM
same,TGI,[44],18.3 µM
same,GI50,[45],3.16 µM
same,TGI,[45],13.4 µM
same,GI50,[46],1.79 µM
same,TGI,[46],4.4 µM
same,GI50,[47],2.74 µM
same,TGI,[47],11.3 µM
same,GI50,[48],2.22 µM
same,TGI,[48],6.93 µM
same,GI50,[49],2.16 µM
same,TGI,[49],7.2 µM
same,GI50,[50],3.2 µM
same,TGI,[50],12.7 µM
same,GI50,[51],0.103 µM
same,TGI,[51],0.238 µM
same,GI50,[52],1.11 µM
same,TGI,[52],2.4 µM
same,GI50,[53],2.58 µM
same,TGI,[53],8.53 µM
same,GI50,[54],2.04 µM
same,TGI,[54],6.57 µM
same,GI50,[55],1.87 µM
same,TGI,[55],4.85 µM
same,GI50,[56],1.96 µM
same,TGI,[56],4.83 µM
same,GI50,[57],1.92 µM
same,TGI,[57],10.2 µM
C[N+](C)(C)CC1CCCc2ccccc2C1=O (configuration not stated),TGI,[1],30.8 µM
same,GI50,[2],22.4 µM
same,TGI,[2],54 µM
same,GI50,[3],6.14 µM
same,TGI,[3],12.4 µM
same,TGI,[4],85.8 µM
same,TGI,[5],36.8 µM
same,TGI,[6],26.5 µM
same,TGI,[7],42.2 µM
same,TGI,[8],31.7 µM
same,TGI,[9],9.71 µM
same,GI50,[10],15.7 µM
same,TGI,[10],41.2 µM
same,TGI,[11],28.8 µM
same,GI50,[12],7.65 µM
same,TGI,[12],30.7 µM
same,GI50,[13],7.85 µM
same,TGI,[13],9.49 µM and 19.7 µM
same,GI50,[14],0.303 µM
same,TGI,[14],6.72 µM and 1.02 µM
same,GI50,[15],0.511 µM
same,TGI,[15],5.29 µM and 2.23 µM
same,TGI,[16],45 µM
same,TGI,[17],42.9 µM
same,TGI,[18],34.5 µM
same,GI50,[19],0.388 µM
same,TGI,[19],7.79 µM and 1.06 µM
same,TGI,[20],14.5 µM
same,TGI,[21],12 µM
same,TGI,[22],49.4 µM
same,TGI,[23],8.08 µM
same,TGI,[58],34.3 µM
same,TGI,[24],53.9 µM
same,GI50,[25],18.9 µM
same,TGI,[25],38.5 µM
same,TGI,[26],> 56.3 µM
same,GI50,[27],4.27 µM
same,TGI,[27],3.27 µM and 8.46 µM
same,TGI,[28],32.4 µM
same,TGI,[29],26.7 µM
same,TGI,[30],> 55 µM
same,GI50,[32],19.1 µM
same,TGI,[33],11 µM
same,GI50,[34],1.93 µM and 2.23 µM
same,TGI,[34],4.78 µM and 5.93 µM
same,GI50,[35],2.06 µM
same,TGI,[35],6.71 µM and 5.04 µM
same,TGI,[36],30.6 µM
same,GI50,[37],18.6 µM
same,TGI,[37],5.72 µM and 36.6 µM
same,GI50,[38],0.42 µM
same,TGI,[38],5.77 µM and 1.11 µM
same,TGI,[39],33.4 µM
same,GI50,[40],0.861 µM
same,TGI,[40],3.23 µM and 2.36 µM
same,GI50,[41],5.1 µM
same,TGI,[41],24.8 µM
same,TGI,[42],30.7 µM
same,TGI,[43],17.7 µM
same,TGI,[44],34.3 µM
same,TGI,[45],85.6 µM
same,GI50,[46],2.75 µM
same,TGI,[46],8.43 µM
same,TGI,[47],12.4 µM
same,GI50,[48],15.8 µM
same,TGI,[48],30.1 µM
same,GI50,[49],8.46 µM
same,TGI,[49],6.44 µM and 21.7 µM
same,TGI,[50],3.67 µM and 3.92 µM
same,TGI,[51],27.6 µM
same,TGI,[52],15.5 µM
same,TGI,[53],27.2 µM
same,TGI,[54],34.5 µM
same,GI50,[55],1.16 µM
same,TGI,[55],5.13 µM and 3.01 µM
same,GI50,[56],8.75 µM
same,TGI,[56],31.7 µM
same,TGI,[57],35 µM
